No end group written: not given here.
Assays:
EphB6 = target: T1, EphB6 (Homo sapiens, UniProt O15197); experiment: Phage clone binding to immobilized EphB6 ectodomain Fc (phage ELISA); details: phage clone displaying the peptide
T1 construct: Histidine-tagged EphB ectodomain Fc fusion proteins were incubated overnight
T1 sequence (O15197 32-594 limits assumed): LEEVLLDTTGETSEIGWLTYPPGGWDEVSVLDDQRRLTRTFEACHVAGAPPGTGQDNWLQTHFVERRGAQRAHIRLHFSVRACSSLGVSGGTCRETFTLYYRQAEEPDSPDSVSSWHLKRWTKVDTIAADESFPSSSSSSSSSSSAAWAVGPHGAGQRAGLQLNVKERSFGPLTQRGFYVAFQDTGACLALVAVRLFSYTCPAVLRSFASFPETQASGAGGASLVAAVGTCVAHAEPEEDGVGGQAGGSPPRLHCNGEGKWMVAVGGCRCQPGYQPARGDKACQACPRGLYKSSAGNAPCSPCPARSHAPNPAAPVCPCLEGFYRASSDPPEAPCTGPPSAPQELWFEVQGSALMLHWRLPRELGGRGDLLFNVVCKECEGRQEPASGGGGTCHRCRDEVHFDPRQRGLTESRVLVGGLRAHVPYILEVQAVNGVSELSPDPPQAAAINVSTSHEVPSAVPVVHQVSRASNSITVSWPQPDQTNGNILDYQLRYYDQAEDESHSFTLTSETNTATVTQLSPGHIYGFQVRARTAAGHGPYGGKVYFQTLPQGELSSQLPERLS
Procedure: Phage binding to Ni-NTA wells coated with 1 μg/ml Eph receptor Fe fusion proteins was quantified using an anti-phage antibody conjugated to horseradish peroxidase (M13 phage detection kit, Amersham Biosciences) with 2,2-azino-bis(3-ethylbenzothiazoline-6-sulfonic acid) as a substrate. The background that was subtracted from the measurements was determined without EphB4 Fc. […] In round 1 of panning, 2×10^11 plaque forming units (PFUs) of the phage library in 100 μl binding buffer were incubated for 1 hour at room temperature in the EphB receptor-coated wells.

EphB3 = target: T2, EphB3 (Homo sapiens, UniProt P54753); experiment: Phage clone binding to immobilized EphB3 ectodomain Fc (phage ELISA); details: phage clone displaying the peptide
T2 construct: Histidine-tagged EphB ectodomain Fc fusion proteins were incubated overnight
T2 sequence (P54753 34-559 limits assumed): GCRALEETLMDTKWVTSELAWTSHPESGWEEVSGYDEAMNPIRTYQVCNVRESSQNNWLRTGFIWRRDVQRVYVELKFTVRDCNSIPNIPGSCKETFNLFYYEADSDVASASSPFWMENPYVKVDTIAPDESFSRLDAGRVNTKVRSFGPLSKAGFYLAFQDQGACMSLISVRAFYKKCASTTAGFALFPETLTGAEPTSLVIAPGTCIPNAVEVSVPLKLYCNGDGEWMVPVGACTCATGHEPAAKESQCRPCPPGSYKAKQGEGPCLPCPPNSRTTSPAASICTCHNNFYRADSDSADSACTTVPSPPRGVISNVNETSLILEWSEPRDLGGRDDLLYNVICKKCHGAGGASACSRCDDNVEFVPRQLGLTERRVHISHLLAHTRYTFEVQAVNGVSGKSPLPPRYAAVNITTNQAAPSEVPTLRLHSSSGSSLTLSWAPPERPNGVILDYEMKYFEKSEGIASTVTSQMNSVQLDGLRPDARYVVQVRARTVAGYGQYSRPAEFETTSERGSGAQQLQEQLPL
Procedure: To identify EphB receptor-binding peptides, an M13 phage library (R&D Systems, Minneapolis, Minn.) displaying random 12 amino acid-long peptides was panned on the ectodomains of EphB1, EphB2, or EphB4 fused to human Fc and immobilized on nickel-coated wells through a carboxy-terminal hexahistidine tag (FIG. 1). Phage binding to Ni-NTA wells coated with 1 μg/ml Eph receptor Fe fusion proteins was quantified using an anti-phage antibody conjugated to horseradish peroxidase (M13 phage detection kit, Amersham Biosciences) with 2,2-azino-bis(3-ethylbenzothiazoline-6-sulfonic acid) as a substrate. The background that was subtracted from the measurements was determined without EphB4 Fc. Histidine-tagged EphB ectodomain Fc fusion proteins were incubated overnight at 4° C. in nickel-nitrilotriacetic acid (Ni-NTA)-coated ELISA wells at concentrations of 10 μg/ml in Tris-buffered saline (TBS) (150 mM NaCl, 50 mM Tris-HCl, pH 7.5), except for EphB2 and EphB4 rounds 3.2 and 4, which were with 1 μg/ml. […] Phage recovered after the first round of panning (1*) were not quantified to ensure that rare clones would be recovered.
The binding selectivity of the phage clones for the different mammalian EphB receptors was also determined (Table 1). […]

EWLSPNLAPSVR [compound 1]
EphB Receptor Specificity (% Binding) B6 (EphB6): 0% | EphB Receptor Specificity (% Binding) B3 (EphB3): 1%

— US7999069B2, “EphB receptor-binding peptides” (Sanford-Burnham Medical Research Institute, priority 2005, dated 2011)
